Read-outs that look alike come from different tables or passages of the source.
Columns and labels:
TgIMPα = TgIMPα (Toxoplasma gondii, UniProt A0A125YID0); assay: Thermostability assay (TSA), TgIMPα; assay type: binding
Protocol: The effect of inhibitory compounds on IMPα thermostability was tested, as previously, using the fluorescent dye SYPRO Orange (Thermo Fisher Scientific, Waltham, MA, USA) and the Qiagen Rotor-Gene Q6 plex instrument programmed in the melt curve mode. Increasing concentrations of compound in 0.5 µL DMSO were added to 24.5 µL recombinant protein (2 µM) in phosphate-buffered saline (PBS). Next, 1 µL of SYPRO Orange dye was added, the reaction mixture heated at 0.5 °C/min from 27 °C to 90 °C, and the fluorescence intensity caused by the SYPRO Orange binding to the proteins monitored (excitation/emission: 530/555 nm). Tm is the temperature at which 50% of the protein is unfolded.

P. falciparum 3D7 strain = assay: P. falciparum growth inhibition assay (HRP2 sandwich ELISA); assay type: cell-based, Plasmodium falciparum
Protocol: Red blood cells (RBCs) were derived from blood from volunteers (approval from the Institute Ethics Committee, IIT Bombay, Mumbai, India) by density gradient centrifugation. Aliquots of cryopreserved P. falciparum 3D7 strain in human red blood cells (RBCs—3% hematocrit, <5% parasitemia) were thawed and cultured using RPMI (Roswell Park Memorial Institute) 1640 medium supplemented with 0.5% Albumax (Gibco^TM, Waltham, MA, USA), 50 mg/L hypoxanthine (Sigma-Aldrich, St Louis, MO, USA), 2 g/L D-glucose (Sigma-Aldrich, St Louis, MO, USA), 2 g/L sodium bicarbonate (Sigma-Aldrich, St Louis, MO, USA), and 56 mg/L of gentamicin (Abbott, Chicago, IL, USA) at 37 °C in 5% CO2 in a humidified incubator according to the standard procedures; suspension cultures were maintained at 3% hematocrit and <5% parasitemia, by adding a fresh medium daily and a regular addition of fresh human RBCs.
Before growth inhibition assays, cultures were synchronized using 5% D-sorbitol (Sigma-Aldrich, St Louis, MO, USA) predominantly to obtain the ring stage of the P. falciparum life cycle.
Growth assays in the absence and presence of inhibitors were performed using the Histidine–Rich Protein 2 (HRP2) sandwich horseradish peroxidase-linked immunosorbent assay to measure HRP2 protein levels as an indicator of growth. Briefly, 25 µL of compound was added to 96-well microculture plates (Eppendorf, Hamburg, Germany) of 0.25% (with fresh RBCs), and added at a hematocrit of 3%. The plates were then incubated for 72 h at 37 °C in a humidified incubator, sparged with 5% CO2. 72 h later, the plates were subjected to freeze–thaw to achieve hemolysis, and samples diluted 200-fold in H2O in transferring to another plate. A day prior to analysis, 96-well ELISA plates (Sigma-Aldrich, St Louis, MO, USA) were coated overnight at 4 °C with 100 µL of 1 μg/mL IgM capture antibody MPFM-55A (Immunology Consultants Laboratory, Portland, OR, USA) specific for P. falciparum HRP2. After blocking for 2 h at room temperature with 2% BSA in PBS, diluted samples were added to the wells, followed by incubation for 2 h, then the plates were washed three times with 0.05% Tween 20 in PBS. Next, 100 µL of the secondary antibody MPFG-55P (Immunology Consultants Laboratory, Portland, OR, USA) conjugated with horseradish peroxidase (0.25 μg/mL in PBS with 2% BSA) was then added to each well, and the plates incubated for 1 h at room temperature, prior to being washed three times, and 100 µL 3,3′, 5,5′ tetramethylbenzidine substrate (BD Biosciences, San Jose, CA, USA) being added. After 10 min incubation in the dark, 50 µL of 1 M H2SO4 was added and the absorbance was read at 450 nm on a Multiscan™ FC Microplate Spectrophotometer (Thermo Fisher Scientific, Waltham, MA, USA).

[1] = system: T. gondii RH strain expressing the luciferase reporter (RH-Fluc); assay: T. gondii tachyzoite growth inhibition assay (RH-Fluc luciferase); assay type: cell-based, Toxoplasma gondii; settings: for T. gondii parasite killing: at 2 µM or less (Figure 7); for IC50: read-out: IC50 T. gondii
From the text: T. gondii RH strain expressing the luciferase reporter (RH-Fluc) was derived to assess the effect of the inhibitors on growth. Briefly, plasmid pCTG-EGFP [42] was modified by replacing the coding sequence of EGFP with that of the firefly luciferase reporter, using restriction enzymes BglII and PstI (Thermo Fisher Scientific, Waltham, MA, USA). The resultant plasmid, pCTG-Fluc, expressing firefly luciferase constitutively under the control of the T. gondii TubulinA promoter, was electroporated into the T. gondii RH strain [43, 44] using a Bio-Rad GenePulser Xcell system (1500 V, 50 Ω and 25 µF) along with restriction enzyme NotI to initiate RE-Mediated Integration (REMI) of the linearized plasmid into the genome. The resultant stable T. gondii line expressing the luciferase reporter was selected for resistance to 20 µM chloramphenicol (encoded by the plasmid pCTG), and dilution cloning was performed to ultimately identify the clone (RH-Fluc) with the highest luciferase activity (c. 4 × 10^7 RLU from 10^7 parasites) used for growth assays. T. gondii tachyzoites were maintained and cultured at 37 °C in 5% CO2 in a humidified incubator in primary human foreskin fibroblasts (HFF, ATCC); HFF cells were maintained in Dulbecco’s modified Eagle medium (DMEM) (Gibco^TM, Waltham, MA, USA) supplemented with 3.7 g/L sodium bicarbonate and 2.38 g/L HEPES, 10% Cosmic Calf serum (Hyclone^TM, Logan, UT, USA) and 20 mg/L gentamicin [47, 48].
Growth inhibition was assessed by luminescence measurements as described. Briefly, 100 μL of culture medium with or without inhibitors was added to confluent monolayers of HFF cells grown in 96-well treated culture plates (Eppendorf, Hamburg, Germany), followed by 100 µL of DMEM containing 5000 parasites. After 48 h, 150 µL of the culture media was discarded from each well without aspirating any parasites, and 10 µL lysis buffer was added to lyse the parasites, followed by 50 μL of 2× luciferase assay reagent (Promega, Madison, WI, USA). Luminescence was measured directly for 10 s using a Varioskan™ LUX multimode microplate reader (Thermo Fisher Scientific, Waltham, MA, USA).

[2] = 10 µM, 72 h, 0.25% parasitemia (Figure 5A)
[3] = 10 μM, 48 h, HFF cells infected with RH-Fluc (Figure 5B)
[4] = parasites in culture, 48 h, pooled, mean ± SD (n = 3) (Table 3)
[5] = single typical experiment (Figure 7), 48 h

Chain of TgIMPα (A0A125YID0 entry or part of it): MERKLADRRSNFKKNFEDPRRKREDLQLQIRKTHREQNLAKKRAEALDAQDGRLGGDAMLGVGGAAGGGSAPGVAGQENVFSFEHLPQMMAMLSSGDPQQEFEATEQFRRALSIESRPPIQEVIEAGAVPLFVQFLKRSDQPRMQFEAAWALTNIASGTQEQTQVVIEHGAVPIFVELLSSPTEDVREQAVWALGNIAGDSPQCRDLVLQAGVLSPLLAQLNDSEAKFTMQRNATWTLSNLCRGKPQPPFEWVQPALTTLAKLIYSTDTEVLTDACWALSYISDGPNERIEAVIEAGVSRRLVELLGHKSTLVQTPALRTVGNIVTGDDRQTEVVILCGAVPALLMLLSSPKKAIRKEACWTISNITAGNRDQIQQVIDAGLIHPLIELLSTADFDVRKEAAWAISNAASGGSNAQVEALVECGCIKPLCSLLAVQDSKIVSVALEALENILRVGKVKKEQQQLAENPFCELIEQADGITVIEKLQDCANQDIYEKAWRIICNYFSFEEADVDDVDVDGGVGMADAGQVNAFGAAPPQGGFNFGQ

CC(C)(C)c1ccc(S(=O)(=O)/C=C/C#N)cc1 [Bay 11-7085]
TgIMPα stable only up to (TgIMPα; 10–20 µM): 30–36 °C | reduction of thermostability of TgIMPα (TgIMPα; 10–20 µM): 9–15 °C | inhibition of P. falciparum growth (HRP2 levels) (P. falciparum 3D7 strain; [2]): ~20% | IC50 (P. falciparum 3D7 strain; parasites in culture, 72 h, pooled, mean ± SD (n = 3)): > 10000 nM | reduction in luciferase activity, indicative of T. gondii growth inhibition [1, 3]: > 50% | T. gondii parasite killing [1]: ≥ 60% | IC50 [1, 4]: 2700 ± 700 nM | IC50 [1, 5]: 2000 nM

O=C(/C=C/c1ccc(O)c(O)c1)OCCc1ccccc1 [CAPE, Caffeic acid phenethyl ester]
change in stability of TgIMPα (TgIMPα; up to 100 µM): did not elicit any marked change in stability | IC50 (P. falciparum 3D7 strain; Plasmodium falciparum, 3D7, 72 h, parasites in culture, pooled, mean ± SD (n = 3)): 7500 ± 1100 nM | IC50 (P. falciparum 3D7 strain; Plasmodium falciparum, 3D7, 72 h, single typical experiment (Figure 6)): 6500 nM | inhibition at 10 µM (P. falciparum 3D7 strain; Plasmodium falciparum, 3D7, 10 µM, 72 h, 0.25% parasitemia (Figure 5A), read-out: inhibition of P. falciparum growth (HRP2 levels)): > 50% | inhibition at 10 µM ([1]; Toxoplasma gondii, 10 μM, 48 h, HFF cells infected with RH-Fluc (Figure 5B), read-out: reduction in luciferase activity, indicative of T. gondii growth inhibition): 5% | IC50 ([1]; Toxoplasma gondii, parasites in culture, 48 h, pooled, mean ± SD (n = 3) (Table 3)): > 10000 nM

CC(=O)OC[C@H]1O[C@@H]([S-])[C@H](OC(C)=O)[C@@H](OC(C)=O)[C@@H]1OC(C)=O.CCP(CC)CC.[Au+] [auranofin]
TgIMPα stable only up to (TgIMPα; concentrations as low as 5 μM): 32–35 °C | reduction of thermostability of TgIMPα (TgIMPα; concentrations as low as 5 μM): 12–15 °C | inhibition of P. falciparum growth (HRP2 levels) (P. falciparum 3D7 strain; [2]): > 50% | reduction in luciferase activity, indicative of T. gondii growth inhibition [1, 3]: > 50% | T. gondii parasite killing [1]: ≥ 60% | IC50 [1, 4]: 2300 ± 800 nM | IC50 [1, 5]: 1900 nM
